Results as given in PubChem BioAssay AID400 (SGCOxCompounds, 2006).

molecular target: Tyrosine-protein phosphatase non-receptor type 5 (Homo sapiens) (UniProt P54829); experiment: inhibition of STEP tyrosine phosphatase activity – biochemical, human, DiFMUP fluorescence (AID 400); settings: recombinant PTPN5, DiFMUP fluorescence phosphatase assay; at 50 µM; enzyme 6.5 ng/mL; DTT 5 mM; active compounds read high
Sequence (P54829 whole entry, looked up): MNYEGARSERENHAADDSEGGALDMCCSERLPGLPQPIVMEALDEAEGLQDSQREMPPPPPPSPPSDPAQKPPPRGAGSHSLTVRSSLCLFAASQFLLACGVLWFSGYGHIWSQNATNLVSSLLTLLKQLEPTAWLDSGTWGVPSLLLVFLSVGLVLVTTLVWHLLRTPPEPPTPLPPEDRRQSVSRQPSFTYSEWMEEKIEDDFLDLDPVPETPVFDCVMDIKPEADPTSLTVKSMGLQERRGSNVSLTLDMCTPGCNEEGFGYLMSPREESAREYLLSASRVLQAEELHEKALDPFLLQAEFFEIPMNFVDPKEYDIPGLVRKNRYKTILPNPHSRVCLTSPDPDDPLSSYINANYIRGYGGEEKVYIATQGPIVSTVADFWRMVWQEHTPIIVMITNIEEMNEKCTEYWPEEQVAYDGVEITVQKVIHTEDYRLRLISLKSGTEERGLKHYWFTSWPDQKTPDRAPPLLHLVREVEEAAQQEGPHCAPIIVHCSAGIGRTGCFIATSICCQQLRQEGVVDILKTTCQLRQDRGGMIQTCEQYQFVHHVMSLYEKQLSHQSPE

In order of falling inhibition:
1. O=C1NC(=S)S/C1=C\C=C\c1ccc([N+](=O)[O-])o1  88%
2. NC1=NC(=O)/C(=C/C=C/c2ccc([N+](=O)[O-])o2)S1  75.5%
3. CC(=O)c1ccc2c(c1)C1C=CCC1C(C(=O)O)N2 (stereo not given)  46%
4. Oc1c(Cl)c(Cl)c(O)c2nsnc12  33%
5. O=C(O)C1Nc2c(O)cccc2C2C=CCC12 (stereo not given)  17%
6. COc1cc[n+](C(=O)N(C)C)cc1  14%
7. CC1(C)OC(=O)C(=Cc2ccc(Br)o2)C(=O)O1  7%

same assay, conditions: recombinant PTPN5, DiFMUP fluorescence phosphatase assay; at 50 µM; enzyme 20 ng/mL; DTT 1 mM; active compounds read high

Compound `Cn1nc(-c2ccccc2)nc2c(=O)n(C)c(=O)nc1-2` has an inhibition of 95%.

same assay, conditions: recombinant PTPN5, DiFMUP fluorescence phosphatase assay; at 50 µM; enzyme 87 ng/mL; DTT 5 mM; active compounds read high

In order of rising inhibition:
1. CC(C)C(=O)Nc1ccc(O)cc1C(=O)O  29%
2. CC(C)(C)NC(=O)CCN(/N=C/c1cc(C(=O)O)ccc1O)C1=NS(=O)(=O)c2ccccc21  30%
3. COc1ccccc1C(=O)Nc1ccc(O)cc1C(=O)O  33%
4. O=C(O)c1ccc(O)c(C=Nc2ccc3oc(-c4cccc(Cl)c4Cl)nc3c2)c1  33%
5. O=C(O)c1ccc(O)c(C=Nc2cccc(-c3nc4ccccc4o3)c2)c1  38%
6. O=C(O)c1ccc(O)c(/C=N/N(CCO)C2=NS(=O)(=O)c3ccccc32)c1  43%
7. Cc1ccc2nc(-c3cc(N=Cc4cc(C(=O)O)ccc4O)ccc3O)[nH]c2c1  53%
8. O=C(O)c1ccc(O)cn1.OO.[O]=[V]  63%
9. OO.OO.[K+].[O]=[V].c1ccc(-c2ccccn2)nc1  67%
10. O=C(O)c1ccc(O)c(C=Nc2ccc3oc(-c4ccc(F)cc4Cl)nc3c2)c1  70%
11. OO.OO.[K+].[O]=[V].c1cnc2c(c1)ccc1cccnc12  72%
12. COc1ccc(-c2nc3cc(N=Cc4cc(C(=O)O)ccc4O)ccc3o2)cc1  83%
13. O=C(O)c1ccc([O-])cn1.OO.OO.[K+].[K+].[O]=[V]  90%
14. O=C([O-])c1ccccn1.OO.OO.[K+].[K+].[O]=[V]  90%
15. F  91%

same assay, conditions: recombinant PTPN5, DiFMUP fluorescence phosphatase assay; dose 33 (unit in doubt); enzyme 28.9 ng/mL; DTT 1 mM; active compounds read high

For `[NH-]CO.[NH-]CO.[NH-]CO.[NH-]CO.[O]=[V][O][V]=[O]`, the inhibition was 43%.

same assay, conditions: recombinant PTPN5, DiFMUP fluorescence phosphatase assay; dose 200 (unit in doubt); enzyme 20 ng/mL; DTT 1 mM; active compounds read high

In order of rising inhibition:
1. O=P(O)(O)OP(=O)(O)O  31.6%
2. Cn1c(=O)[nH]c2c(c1=O)[n+](=O)c(/C=C/c1ccccc1)nn2C  52%
3. CCn1nc(/C=C/c2ccccc2)[n+](=O)c2c(=O)n(C)c(=O)[nH]c21  54%
4. CCn1nc(-c2ccc(Cl)cc2)nc2c(=O)n(C)c(=O)nc1-2  67.5%
5. Cn1nc(/C=C/c2ccccc2)nc2c(=O)n(C)c(=O)nc1-2  70%
6. CCCCOC(OCCCC)(OCCCC)OCCCC  99.4%
